Measured values as given in PubChem BioAssay (NCI).
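Five concentrations, 48 hours, 96-well plates. GI50 = concentration required for 50% inhibition of growth. TGI denotes the concentration required for complete inhibition of growth.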

Assays:
Test in all cases: inhibition of tumour cell growth, NCI panel, 48 h
786-0 renal = tested on: 786-0 renal
A498 renal = tested on: A498 renal
A549 NSCLC = tested on: A549 NSCLC
ACHN renal = tested on: ACHN renal
BT-549 breast = tested on: BT-549 breast
CAKI-1 renal = tested on: CAKI-1 renal
CCRF-CEM leukemia = tested on: CCRF-CEM leukemia
COLO 205 colon = tested on: COLO 205 colon
DU-145 prostate = tested on: DU-145 prostate
EKVX NSCLC = tested on: EKVX NSCLC
HCC-2998 colon = tested on: HCC-2998 colon
HCT-116 colon = tested on: HCT-116 colon
HCT-15 colon = tested on: HCT-15 colon
HL-60(TB) leukemia = tested on: HL-60(TB) leukemia
HOP-62 NSCLC = tested on: HOP-62 NSCLC
HOP-92 NSCLC = tested on: HOP-92 NSCLC
HS 578T breast = tested on: HS 578T breast
HT29 colon = tested on: HT29 colon
IGROV1 ovarian = tested on: IGROV1 ovarian
K-562 leukemia = tested on: K-562 leukemia
KM12 colon = tested on: KM12 colon
LOX IMVI melanoma = tested on: LOX IMVI melanoma
M14 melanoma = tested on: M14 melanoma
MALME-3M melanoma = tested on: MALME-3M melanoma
MCF7 breast = tested on: MCF7 breast
MDA-MB-231 breast = tested on: MDA-MB-231 breast
MDA-MB-435 = tested on: MDA-MB-435
MOLT-4 leukemia = tested on: MOLT-4 leukemia
NCI-H226 lung = tested on: NCI-H226 lung
NCI-H23 lung = tested on: NCI-H23 lung
NCI-H460 lung = tested on: NCI-H460 lung
NCI-H522 lung = tested on: NCI-H522 lung
NCI/ADR-RES ovarian = tested on: NCI/ADR-RES ovarian
OVCAR-3 ovarian = tested on: OVCAR-3 ovarian
OVCAR-4 ovarian = tested on: OVCAR-4 ovarian
OVCAR-5 ovarian = tested on: OVCAR-5 ovarian
OVCAR-8 ovarian = tested on: OVCAR-8 ovarian
PC-3 prostate = tested on: PC-3 prostate
RPMI-8226 leukemia = tested on: RPMI-8226 leukemia
RXF 393 renal = tested on: RXF 393 renal
SF-268 CNS = tested on: SF-268 CNS
SF-295 CNS = tested on: SF-295 CNS
SF-539 CNS = tested on: SF-539 CNS
SK-MEL-2 melanoma = tested on: SK-MEL-2 melanoma
SK-MEL-28 melanoma = tested on: SK-MEL-28 melanoma
SK-MEL-5 melanoma = tested on: SK-MEL-5 melanoma
SK-OV-3 ovarian = tested on: SK-OV-3 ovarian
SN12C renal = tested on: SN12C renal
SNB-75 CNS = tested on: SNB-75 CNS
SR leukemia = tested on: SR leukemia
SW-620 colon = tested on: SW-620 colon
T-47D breast = tested on: T-47D breast
TK-10 renal = tested on: TK-10 renal
U251 CNS = tested on: U251 CNS
UACC-257 melanoma = tested on: UACC-257 melanoma
UACC-62 melanoma = tested on: UACC-62 melanoma
UO-31 renal = tested on: UO-31 renal

## CCCCN=C(N)c1ccc(OCCSCCOc2ccc(C(N)=NCCCC)cc2)cc1
786-0 renal
  GI50: > 100 µM
  TGI: > 100 µM
A498 renal
  GI50: 15.2 µM
  TGI: > 100 µM
A549 NSCLC
  GI50: 4.47 µM
  TGI: > 100 µM
ACHN renal
  GI50: > 100 µM
  TGI: > 100 µM
BT-549 breast
  GI50: 1.97 µM
  TGI: 13.3 µM
CAKI-1 renal
  GI50: > 100 µM
  TGI: > 100 µM
CCRF-CEM leukemia
  GI50: 20.7 µM
  TGI: > 100 µM
COLO 205 colon
  GI50: 3.1 µM
  TGI: 15 µM
DU-145 prostate
  GI50: 10.7 µM
  TGI: > 100 µM
EKVX NSCLC
  GI50: 0.96 µM
  TGI: > 100 µM
HCC-2998 colon
  GI50: 5.87 µM
  TGI: > 100 µM
HCT-116 colon
  GI50: 4.46 µM
  TGI: > 100 µM
HCT-15 colon
  GI50: > 100 µM
  TGI: > 100 µM
HL-60(TB) leukemia
  GI50: 5.97 µM
  TGI: 30 µM
HOP-62 NSCLC
  GI50: 12.1 µM
  TGI: > 100 µM
HOP-92 NSCLC
  GI50: 1.44 µM
  TGI: 14.6 µM
HS 578T breast
  GI50: 34.2 µM
  TGI: > 100 µM
HT29 colon
  GI50: 2.79 µM
  TGI: > 100 µM
IGROV1 ovarian
  GI50: 16.4 µM
  TGI: > 100 µM
K-562 leukemia
  GI50: 2.3 µM
  TGI: > 100 µM
KM12 colon
  GI50: 3.62 µM
  TGI: 19.9 µM
LOX IMVI melanoma
  GI50: 9.46 µM
  TGI: > 100 µM
M14 melanoma
  GI50: 28.4 µM
  TGI: > 100 µM
MALME-3M melanoma
  GI50: 2.97 µM
  TGI: 26.4 µM
MCF7 breast
  GI50: 3.34 µM
  TGI: > 100 µM
MDA-MB-231 breast
  GI50: 16.9 µM
  TGI: > 100 µM
MDA-MB-435
  GI50: 3.35 µM
  TGI: > 100 µM
MOLT-4 leukemia
  GI50: 20.9 µM
  TGI: > 100 µM
NCI-H226 lung
  GI50: 65.4 µM
  TGI: > 100 µM
NCI-H23 lung
  GI50: 2.87 µM
  TGI: > 100 µM
NCI-H460 lung
  GI50: 3.17 µM
  TGI: > 100 µM
NCI-H522 lung
  GI50: 2.25 µM
  TGI: 12.8 µM
NCI/ADR-RES ovarian
  GI50: > 100 µM
  TGI: > 100 µM
OVCAR-3 ovarian
  GI50: 4.97 µM
  TGI: > 100 µM
OVCAR-4 ovarian
  GI50: 3.94 µM
  TGI: > 100 µM
OVCAR-5 ovarian
  GI50: 46.1 µM
  TGI: > 100 µM
OVCAR-8 ovarian
  GI50: 10.5 µM
  TGI: > 100 µM
PC-3 prostate
  GI50: 4.4 µM
  TGI: 98.6 µM
RPMI-8226 leukemia
  GI50: 2.71 µM
  TGI: 53.4 µM
RXF 393 renal
  GI50: 43.2 µM
  TGI: > 100 µM
SF-268 CNS
  GI50: 5.32 µM
  TGI: > 100 µM
SF-295 CNS
  GI50: 2.73 µM
  TGI: 53.8 µM
SF-539 CNS
  GI50: 5.59 µM
  TGI: > 100 µM
SK-MEL-2 melanoma
  GI50: 5.36 µM
  TGI: 21.9 µM
SK-MEL-28 melanoma
  GI50: 20 µM
  TGI: > 100 µM
SK-MEL-5 melanoma
  GI50: 1.28 µM
  TGI: 14.4 µM
SK-OV-3 ovarian
  GI50: 2.54 µM
  TGI: > 100 µM
SN12C renal
  GI50: 1.76 µM
  TGI: > 100 µM
SNB-75 CNS
  GI50: 1.09 µM
  TGI: 16.2 µM
SR leukemia
  GI50: 3.13 µM
  TGI: 53.7 µM
SW-620 colon
  GI50: 10.2 µM
  TGI: > 100 µM
T-47D breast
  GI50: 1.83 µM
  TGI: 24.8 µM
TK-10 renal
  GI50: 66.6 µM
  TGI: > 100 µM
U251 CNS
  GI50: 1.6 µM
  TGI: > 100 µM
UACC-257 melanoma
  GI50: 4.4 µM
  TGI: 71.8 µM
UACC-62 melanoma
  GI50: 6.12 µM
  TGI: > 100 µM
UO-31 renal
  GI50: > 100 µM
  TGI: > 100 µM
